From the supplement of paper PMC5908809

What was measured:
[1] = system: normal NK cells expanded with K562-aAPC; test: percent inhibition of viability; higher = more inhibition; conditions: 72 h, IL-2 2.5 ng/mL
Description: (§1)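 Drug sensitivity and resistance testing on K562-aAPC-expanded normal NK cells: 5 concentrations (10-fold steps over a 10,000-fold range), 72 h at 37 °C, viability by CellTiter-Glo normalised to DMSO and benzethonium chloride controls; DSS from the fitted curve.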

[2] = system: normal NK cells expanded with K562-aAPC; test: drug sensitivity score (DSS) (DSS units); higher = more sensitive; extreme values may be limits of the assay; conditions: 72 h; IL-2 2.5 ng/mL
Description: as §1

DERL-7 (IL-2 2.5 ng/mL) [3] = test: as above; conditions: 72 h
[4] = system: normal primary NK cells, pool 1 (3 donors) (IL-2 2.5 ng/mL); test: as above; conditions: 72 h
YT (IL-2 2.5 ng/mL) [5] = test: as above; conditions: 72 h
KAI3 (IL-2 2.5 ng/mL) [6] = test: as above; conditions: 72 h
NKL (IL-2 2.5 ng/mL) [7] = test: as above; conditions: 72 h
KHYG-1 (IL-2 2.5 ng/mL) [8] = test: as above; conditions: 72 h
[9] = system: normal primary NK cells, pool 1 (3 donors), resting (IL-2 0 ng/mL); test: as above; conditions: 72 h
SNK-6 (IL-2 2.5 ng/mL) [10] = test: as above; conditions: 72 h
NK-92 (IL-2 2.5 ng/mL) [11] = test: as above; conditions: 72 h
NK-YS (IL-2 2.5 ng/mL) [12] = test: as above; conditions: 72 h
IMC-1 (IL-2 20 ng/mL) [13] = test: as above; conditions: 72 h
[14] = system: normal primary NK cells, pool 2 (3 donors) (IL-2 2.5 ng/mL); test: as above; conditions: 72 h
[15] = system: normal primary NK cells, pool 3 (3 donors) (IL-2 2.5 ng/mL); test: as above; conditions: 72 h
DERL-7 (IL-2 2.5 ng/mL) [16] = test: percent inhibition of viability; higher = more inhibition; conditions: 72 h
[17] = system: normal primary NK cells, pool 1 (3 donors) (IL-2 2.5 ng/mL); test: as above; conditions: 72 h
YT (IL-2 2.5 ng/mL) [18] = test: as above; conditions: 72 h
KAI3 (IL-2 2.5 ng/mL) [19] = test: as above; conditions: 72 h
NKL (IL-2 2.5 ng/mL) [20] = test: as above; conditions: 72 h
KHYG-1 (IL-2 2.5 ng/mL) [21] = test: as above; conditions: 72 h
[22] = system: normal primary NK cells, pool 1 (3 donors), resting (IL-2 0 ng/mL); test: as above; conditions: 72 h
SNK-6 (IL-2 2.5 ng/mL) [23] = test: as above; conditions: 72 h
NK-92 (IL-2 2.5 ng/mL) [24] = test: as above; conditions: 72 h
NK-YS (IL-2 2.5 ng/mL) [25] = test: as above; conditions: 72 h
IMC-1 (IL-2 20 ng/mL) [26] = test: as above; conditions: 72 h
[27] = system: normal primary NK cells, pool 2 (3 donors) (IL-2 2.5 ng/mL); test: as above; conditions: 72 h
[28] = system: normal primary NK cells, pool 3 (3 donors) (IL-2 2.5 ng/mL); test: as above; conditions: 72 h

Cc1cnc(NC(=O)Nc2cc(Br)c(C)cc2OC[C@@H]2CNCCO2)cn1 [Rabusertib] (max concentration tested 1000 nM)
percent inhibition of viability [%]
Conditions	0.1 nM	1 nM	10 nM	100 nM	1000 nM
DERL-7 (IL-2 2.5 ng/mL) [16]	5.67	5.69	4.81	4.56	33.5
IMC-1 (IL-2 20 ng/mL) [26]	-3.74	-1.84	2.04	1.67	9.87
KAI3 (IL-2 2.5 ng/mL) [19]	-0.28	-3.83	3.9	11.6	81
KHYG-1 (IL-2 2.5 ng/mL) [21]	3.66	7.68	5.93	14.9	103
NK-92 (IL-2 2.5 ng/mL) [24]	-4.77	4.85	16	18.2	86.9
NK-YS (IL-2 2.5 ng/mL) [25]	1.16	1.34	0.68	3.22	65.2
NKL (IL-2 2.5 ng/mL) [20]	-16.6	0.3	-1.09	14	86.2
SNK-6 (IL-2 2.5 ng/mL) [23]	11.6	6.32	2.12	11.8	62.8
YT (IL-2 2.5 ng/mL) [18]	-0.82	-0.63	1.16	-2	11
[1]	4.2	-1.61	0.16	13.5	55.7
[17]	-1.58	-1.28	-6.24	-18	-4.02
[22]	5.84	-6.29	4.9	-19.1	-1.65
[27]	-8.45	5.23	3.94	0.79	15.8
[28]	-20.8	-8.02	3.37	-3.4	8.17

Conditions	drug sensitivity score
DERL-7 (IL-2 2.5 ng/mL) [3]	2.31
IMC-1 (IL-2 20 ng/mL) [13]	0
KAI3 (IL-2 2.5 ng/mL) [6]	6.43
KHYG-1 (IL-2 2.5 ng/mL) [8]	8.07
NK-92 (IL-2 2.5 ng/mL) [11]	7.67
NK-YS (IL-2 2.5 ng/mL) [12]	4.02
NKL (IL-2 2.5 ng/mL) [7]	7.11
SNK-6 (IL-2 2.5 ng/mL) [10]	5.37
YT (IL-2 2.5 ng/mL) [5]	0
[2]	5.12
[4]	0
[9]	0
[14]	0.35
[15]	0

S=c1[nH]cnc2nc[nH]c12 [Mercaptopurine] (max concentration tested 10000 nM)
percent inhibition of viability [%]
Conditions	1 nM	10 nM	100 nM	1000 nM	10000 nM
DERL-7 (IL-2 2.5 ng/mL) [16]	-4.35	-1.44	0.98	9.85	47
IMC-1 (IL-2 20 ng/mL) [26]	-3.21	-3.47	2.38	21.7	91.4
KAI3 (IL-2 2.5 ng/mL) [19]	-5.39	-4.2	-7.01	6.69	53.7
KHYG-1 (IL-2 2.5 ng/mL) [21]	-2.69	-0.22	5.34	30	99.3
NK-92 (IL-2 2.5 ng/mL) [24]	-10.3	-10.7	12.1	38.5	53.5
NK-YS (IL-2 2.5 ng/mL) [25]	-2.27	-1.87	9.74	52.6	90.4
NKL (IL-2 2.5 ng/mL) [20]	-15.5	0	-11.9	-4.76	6.22
SNK-6 (IL-2 2.5 ng/mL) [23]	11.4	16.1	38.4	75.4	94.4
YT (IL-2 2.5 ng/mL) [18]	-0.59	-2.35	3.64	24.6	81.8
[1]	-5.16	4.06	-1.48	3.65	11.2
[17]	-1.1	-6.11	-2.9	-10.7	0.61
[22]	-2.87	-18.3	-8.34	-34.9	-22.3
[27]	-14.1	-7.32	-6.91	-13.4	3.06
[28]	-16.8	-9.02	-3.33	-7.89	8.16

Conditions	drug sensitivity score
DERL-7 (IL-2 2.5 ng/mL) [3]	4.05
IMC-1 (IL-2 20 ng/mL) [13]	8.45
KAI3 (IL-2 2.5 ng/mL) [6]	3.99
KHYG-1 (IL-2 2.5 ng/mL) [8]	9.71
NK-92 (IL-2 2.5 ng/mL) [11]	8.34
NK-YS (IL-2 2.5 ng/mL) [12]	11.6
NKL (IL-2 2.5 ng/mL) [7]	0
SNK-6 (IL-2 2.5 ng/mL) [10]	19.7
YT (IL-2 2.5 ng/mL) [5]	8.11
[2]	0.11
[4]	0
[9]	0
[14]	0
[15]	0

Cc1[nH]c(/C=C2\C(=O)Nc3ccccc32)c(C)c1CCC(=O)O [Orantinib] (max concentration tested 10000 nM)
percent inhibition of viability [%]
Conditions	1 nM	10 nM	100 nM	1000 nM	10000 nM
DERL-7 (IL-2 2.5 ng/mL) [16]	1.12	-2.21	-6.87	-10.2	-8.27
IMC-1 (IL-2 20 ng/mL) [26]	-7.71	-4.44	-5.94	1.86	11
KAI3 (IL-2 2.5 ng/mL) [19]	0.42	1.13	-2.39	7	29.4
KHYG-1 (IL-2 2.5 ng/mL) [21]	-7.11	-2.97	-4.54	8.46	13.8
NK-92 (IL-2 2.5 ng/mL) [24]	-10.9	-1.51	-13.1	11.1	13
NK-YS (IL-2 2.5 ng/mL) [25]	-6.4	-2.5	-1.18	7.48	23.9
NKL (IL-2 2.5 ng/mL) [20]	-19.2	-18.2	-1.7	6.18	14.6
SNK-6 (IL-2 2.5 ng/mL) [23]	-0.4	10.2	3.89	15.8	-2.27
YT (IL-2 2.5 ng/mL) [18]	-3.34	1.08	0.41	8.54	18.7
[1]	-1.66	-4.19	-1.4	6.04	9.43
[17]	-0.7	9.63	7.39	4.16	9.93
[22]	-0.49	20.7	11.4	12.2	21.7
[27]	-0.89	-3.13	6.7	-0.82	5.48
[28]	-4.8	2.21	11.9	-1.68	9.39

Conditions	drug sensitivity score
DERL-7 (IL-2 2.5 ng/mL) [3]	0
IMC-1 (IL-2 20 ng/mL) [13]	0.04
KAI3 (IL-2 2.5 ng/mL) [6]	2.32
KHYG-1 (IL-2 2.5 ng/mL) [8]	0.65
NK-92 (IL-2 2.5 ng/mL) [11]	0.62
NK-YS (IL-2 2.5 ng/mL) [12]	1.86
NKL (IL-2 2.5 ng/mL) [7]	0.67
SNK-6 (IL-2 2.5 ng/mL) [10]	0
YT (IL-2 2.5 ng/mL) [5]	1.23
[2]	0
[4]	0
[9]	3.33
[14]	0
[15]	0

CCc1c2c(nc3ccc(OC(=O)N4CCC(N5CCCCC5)CC4)cc13)-c1cc3c(c(=O)n1C2)COC(=O)[C@]3(O)CC [Irinotecan] (max concentration tested 10000 nM)
percent inhibition of viability [%]
Conditions	1 nM	10 nM	100 nM	1000 nM	10000 nM
DERL-7 (IL-2 2.5 ng/mL) [16]	-4.74	4.74	6.64	65.6	96.7
IMC-1 (IL-2 20 ng/mL) [26]	-2.65	-6.08	0	95.8	99.6
KAI3 (IL-2 2.5 ng/mL) [19]	16.1	10.6	29.7	88.8	84.8
KHYG-1 (IL-2 2.5 ng/mL) [21]	0.37	-3.33	25.7	104	109
NK-92 (IL-2 2.5 ng/mL) [24]	0.95	-2.29	30	104	109
NK-YS (IL-2 2.5 ng/mL) [25]	-7.5	-7.35	7.27	94.2	98.5
NKL (IL-2 2.5 ng/mL) [20]	-2.62	5.5	62.6	105	108
SNK-6 (IL-2 2.5 ng/mL) [23]	18.2	-16.5	10.3	93.8	98.5
YT (IL-2 2.5 ng/mL) [18]	-5.37	-7.93	2.4	78.1	108
[1]	-0.14	-0.75	0.82	45.8	61
[17]	-8.27	6.89	-1.05	3.55	14.4
[22]	4.36	9.89	22.8	2.26	-9.62
[27]	1.46	0.89	3.4	10	20.8
[28]	3.5	8.16	16.4	10.7	17.2

Conditions	drug sensitivity score
DERL-7 (IL-2 2.5 ng/mL) [3]	13.6
IMC-1 (IL-2 20 ng/mL) [13]	17.4
KAI3 (IL-2 2.5 ng/mL) [6]	19.5
KHYG-1 (IL-2 2.5 ng/mL) [8]	21.9
NK-92 (IL-2 2.5 ng/mL) [11]	22.4
NK-YS (IL-2 2.5 ng/mL) [12]	18.3
NKL (IL-2 2.5 ng/mL) [7]	25.6
SNK-6 (IL-2 2.5 ng/mL) [10]	18.7
YT (IL-2 2.5 ng/mL) [5]	14.6
[2]	8.77
[4]	0.5
[9]	0
[14]	1.23
[15]	2.6
